Patent US8987201B2, “Black bear parathyroid hormone and methods of using black bear parathyroid hormone” (Michigan Technological University, priority 2009, dated 2015)
Marks after values point to notes of the source that are not given here.

Columns and labels:
[1] = test system: ovariectomized (OVX) Sprague-Dawley rats; experiment: In vivo rat OVX dose response study: bone μCT and bone strength
Description: Ninety female, 3-month old Sprague-Dawley rats were obtained. Eighty (80) of the rats were ovariectomized (OVX) and ten (10) underwent a sham OVX procedure (sham OVX) in which the ovaries were left in the animal. The OVX animals were randomly assigned into groups of ten for further experiments.
Following the actual or sham OVX procedure, all animals were untreated for 6 weeks to allow bone loss. After the 6 week period of bone loss, groups of animals were injected for a six- or eight-week period (daily for five days per week) with vehicle (saline) or 3, 10, or 30 μg/kg bear or human PTH1-34. […] The sham OVX group as well as one group of actual OVX rats were euthanized at six weeks while the remaining animals were euthanized at fourteen weeks following the OVX procedure. Samples were obtained from the euthanized animals for further analysis.
Three-dimensional images of bones were obtained using micro-computed tomography (μCT). The three-dimensional images were then used to quantify bone parameters, as explained below. The measurements were conducted on a 1.6 mm-thick region that begins at a position 2 mm from the growth plate (FIG. 8). Bone samples were obtained and analyzed from sham (FIG. 9A, “Sham OVX 6 weeks”) and actual (FIG. 9B, “OVX 6 weeks”) OVX rats that were euthanized at six weeks after the procedure, as well as a group of actual OVX rats that were euthanized at fourteen weeks after the procedure (FIG. 9C, “OVX 14 weeks”). The rats in the OVX 14 group were given injections of vehicle (saline) for 8 weeks following the 6 week bone loss period, in parallel with the PTH1-34 injections for eight weeks (FIGS. 9D, 9E, and 9F). The samples shown in FIGS. 9D, 9E, and 9F were obtained from rats that were injected for eight weeks following the 6 week bone loss period, with 3, 10, or 30 μg/kg black bear PTH1-34 (“bbPTH”), respectively.

Male Swiss-Webster mice = experiment: Cortical bone mineral content (ash fraction) and geometrical properties of the femur; assay type: in vivo, mouse; settings: femoral midshaft, 2.5 nmol/kg s.c., 8 weeks, normalized by body mass, SD in parentheses
From the text: All handling procedures and experiments were approved by the Michigan Technological University Institutional Animal Care and Use Committees. Male Swiss-Webster mice were obtained from a commercial breeder (Harlan, Indianapolis, Ind.). All animals were maintained on a 12-h light/12-h dark cycle, and were permitted free access to water and food containing 0.95% calcium (Purina Rodent Diet #5001).
In the first experiment, 11 wk old mice received daily (5 days/week) subcutaneous injections of 2.5 nmol/kg PTH 1-34 (hPTH 1-34 or bbPTH 1-34) or acidic saline vehicle (0.15 M NaCl+0.001 N HCl) for 8 weeks (n=10 mice/group). In the second experiment, 12 wk old mice received daily (5 days/week) subcutaneous injections of 2.5 nmol/kg PTH 1-84 (hPTH 1-84 or bbPTH 1-84) or acidic saline vehicle for 8 weeks (n=10 mice/group). All PTH- and vehicle-treated animals received subcutaneous injections of calcein at a dosage of 10 mg/kg on days 12 and 3 before death to label mineralizing bone surfaces. Twenty-four hours following the last treatment injection, mice were sacrificed by carbon dioxide asphyxiation. Right femurs were fixed in 10% neutral buffered formalin. Left femurs were wrapped in 0.15M saline soaked gauze and stored at −20 deg C. Left tibias were stored in 70% ethanol at 4 deg C.
Following the bending test, the left femoral diaphyses were ashed in a furnace to determine mineral content (ash fraction). Right femoral diaphyses were embedded in methyl methacrylate and sectioned with a diamond saw to expose the midshaft cross-section. Images of the midshaft cross-sections were captured using a digital camera (Spot Insight QE, Diagnostic Instruments Inc., Sterling Heights, Mich.), and Scion Image analysis software (Scion Corporation, Frederick, Md.) was used to calculate the periosteal area (Ps.Ar), cortical area (Ct.Ar), and endosteal area (Es.Ar) for each sample. Cortical bone thickness (Ct.Th) was calculated in 0.1 mm increments for each anatomical quadrant and for the entire cross-section using image analysis software (Bioquant Osteo, Nashville, Tenn.). Thin sections from the midshaft of the right femur were ground to a thickness of 50 μm and mounted on glass slides. Images of calcein labels were captured at 100× magnification and periosteal and endosteal mineral apposition rates (Ps.MAR and Es.MAR, respectively) and mineralizing surfaces (Ps.MS/BS and Es.MS/MS) were quantified (Bioquant) for each femur.
All bone geometrical, architectural, and mineral properties were normalized by body mass to account for potential variation in animal size (31-33). Trabecular bone properties quantified by micro-computed tomography were compared by ANOVA between vehicle, bear, and human PTH-treated mice within each study (PTH 1-34 or PTH 1-84). The microCT parameters were not directly compared between the PTH 1-34 and PTH 1-84 studies because analyses were conducted on different microCT machines. For all other bone properties, all six experimental groups (from both the PTH 1-34 and PTH 1-84 studies) were compared with ANOVA and Fisher's PLSD. A significance of p<0.05 was used for all comparisons.

Question: For human PTH 1-34 [hPTH 1-34], which “average thickness of the trabecular struts (Tb.Th) compared to vehicle-treated controls” value ([1]; OVX rats) is on record?
Answer: significantly (p<0.05) increased

Question: What about the “increasing tibial cortical bone volume (BV), human vs bear” value ([1]; OVX rats) of the same substance?
Answer: better than bear PTH1-34

Question: What about the “trabecular bone mineralization (M.Dn) vs vehicle (saline) alone” value ([1]; OVX rats) of the same substance?
Answer: significantly (p<0.05) greater trabecular bone mineralization

Question: And the “bone mineral apparent density, hPTH vs bbPTH” value ([1]; OVX rats, 30 μg/kg)?
Answer: significantly higher (p<0.05)

Question: And the “bone mineral apparent density (App.Dn) vs vehicle (saline) alone” value ([1]; OVX rats, 3, 10, or 30 μg/kg)?
Answer: significantly higher (p<0.05)

Question: What about the “bone volume as a fraction of total volume (BV/TV) vs vehicle (saline) alone” value ([1]; OVX rats, 3, 10, or 30 μg/kg) of the same substance?
Answer: significantly (p<0.05) greater bone volume fraction than treatment with vehicle (saline) alone at all three levels tested

Question: And the “bone volume fraction, human PTH vs bear PTH” value ([1]; OVX rats, highest dose of 30 μg/kg)?
Answer: significantly (p<0.05) greater

Question: What about the “tibial cortical porosity relative to vehicle (saline) alone” value ([1]; OVX rats, middle (10 μg/kg) and higher doses (30 μg/kg)) of the same substance?
Answer: significantly (p<0.05) decreased

Question: And the “femoral cortical bone strength relative to vehicle-treated controls” value ([1]; OVX rats, only higher doses (30 μg/kg))?
Answer: significant (p<0.05) increases

Question: What about the Ct.Ar (Male Swiss-Webster mice) of the same substance?
Answer: 30.7 (3.0) mm^2/kg

Question: What about the Ct.Th (Male Swiss-Webster mice) of the same substance?
Answer: 2.22 (0.20)^b mm/kg

Question: And the Es.Ar (Male Swiss-Webster mice)?
Answer: 24.7 (3.7) mm^2/kg

Question: And the Ps.Ar (Male Swiss-Webster mice)?
Answer: 55.3 (5.2)^b,c mm^2/kg
